Common to all, as to experiment: DTP human tumour cell line panel, 48 h
Experiment [1] deals with SK-MEL-5 melanoma.
The subject of experiment [2] is HCC-2998 colon.
For experiment [3], the system named is RPMI-8226 leukemia.
Experiment [4] has as its system DU-145 prostate.
Experiment [5] has as its system HCT-15 colon.
Experiment [6] deals with OVCAR-5 ovarian.
Experiment [7] has as its system MDA-MB-435.
Experiment [8] deals with A549 NSCLC.
The subject of experiment [9] is MDA-N.
Experiment [10] deals with M14 melanoma.
The subject of experiment [11] is NCI-H226 lung.
Experiment [12] concerns HOP-92 NSCLC.
The test system of experiment [13] is TK-10 renal.
The test system of experiment [14] is HS 578T breast.
Experiment [15] has as its system EKVX NSCLC.
Experiment [16] has as its system SK-OV-3 ovarian.

Structures are written as SMILES.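 Where inhibition never reached the appropriate level, the endpoint shown equals the highest concentration tested. Otherwise, values were interpolated linearly from a five-concentration, 48-hour dose response in 96-well plates. At the TGI there is no net growth.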

For `COC(=O)c1ccccc1/C=C1\Cc2c(C)c3c(c(C)c2C1=O)CCC3`, the concentration for total growth inhibition (TGI) in experiment [1], in experiment [2], in experiment [3], in experiment [4], in experiment [5] and in [6] was more than 100 µM each time. In addition, the concentration for total growth inhibition (TGI) in [7], in experiment [8], in experiment [9], in experiment [10], in [11] and in [12] was more than 100 µM throughout. Besides, the results for the TGI in experiment [13], in experiment [14] and in experiment [15] were more than 100 µM, 95.6 µM and more than 100 µM, respectively.

Regarding `C[C@]12CCC(O)CC1=CC[C@@H]1[C@@H]2CC[C@]2(C)C(O)[C@H](n3ccnc3)C[C@@H]12` (some centres not stated), the TGI in [1], in experiment [3], in experiment [4], in experiment [5], in experiment [6] and in experiment [7] was more than 100 µM in each case. For the same compound, the TGI in experiment [8], in experiment [9], in experiment [10], in experiment [11], in experiment [12] and in [13] was more than 100 µM each time. Further, the TGI in [14] and in experiment [15] was more than 100 µM each time.

Consider `CC(=O)OCC1OC(NC(=S)Nn2c(=O)[nH]c3ccccc3c2=O)C(OC(C)=O)C(OC(C)=O)C1OC(C)=O` (configuration not stated), for which the total growth inhibition concentration (TGI) in experiment [16], in [1], in experiment [2], in experiment [3], in experiment [4] and in [5] was more than 100 µM in each case. Besides, the concentration for total growth inhibition (TGI) in [6], in experiment [7], in experiment [8], in experiment [9], in experiment [10] and in experiment [11] was more than 100 µM in each case. For the same compound, the TGI in experiment [12], in experiment [14] and in experiment [15] was more than 100 µM each time.

With `CN(C)CCn1c(=O)c2ccc(NCCNCCO)c3c(=O)c4ccccc4n(c1=O)c23`, the TGI stood at 16.2 µM in experiment [16]; 0.813 µM in [1]; 2.34 µM in experiment [2]; 0.628 µM in experiment [4]; 6.9 µM in experiment [5]; 5.19 µM in [6]. The total growth inhibition concentration (TGI) in experiment [7] was found to be 2.07 µM; in experiment [8], 3.16 µM; in experiment [9], 1.78 µM; in experiment [10], 1.72 µM; in experiment [11] it was 4.28 µM; in [12], 0.604 µM. The TGI in [13] worked out at 6.95 µM; in [14] it was 1.37 µM; in [15] it was 2.41 µM.

Regarding `CC(C)CCCC(C)[C@H]1CC[C@H]2n3c(nnc3-c3ccccc3)CCC[C@]12C` (some centres not stated), the concentration for total growth inhibition (TGI) in [16] turned out to be 26.9 µM; in experiment [1], 25.1 µM; in experiment [2], 0.0669 µM; in experiment [3] it was 21.1 µM; in experiment [4] it was 83 µM; in [5], 68.9 µM. Besides, the total growth inhibition concentration (TGI) in experiment [7] was 25.7 µM; in experiment [8], 28 µM; in experiment [9], 31 µM; in experiment [10], 30.1 µM; in experiment [11], 37.5 µM; in experiment [12], 37 µM. Also, the TGI in [13] was 57.2 µM; in experiment [14], 43.3 µM.

For the compound `CC(=O)NC1C(OCc2ccccc2)OC(CO)C(O)C1OC(C)C(=O)NC(C(=O)NC(CCC(=O)NCCCC(=O)Nc1ccc2c(c1)CN1C(=O)c3ccccc3C1=N2)C(N)=O)C(C)C` (configuration not stated), the TGI in [16], in experiment [1], in experiment [2], in experiment [3], in experiment [4] and in [5] was more than 100 µM throughout. The TGI in experiment [6], in [7], in experiment [8], in experiment [9], in experiment [10] and in experiment [12] was more than 100 µM throughout. The TGI in experiment [13], in experiment [14] and in [15] was more than 100 µM each time.

On to `CCCCCCCC(CC(=O)NC(CO)C(=O)NC(CO)CC(C)C)OC(=O)CC(CCCCCCC)OC(=O)CC(CCCCCCC)OC1OC(C)C(O)C(OC2OC(C)C(O)C(OC(C)=O)C2O)C1O` (configuration not stated), for which the TGI in [16] came out at 30.8 µM; in experiment [1], 25.1 µM; in experiment [2], 23.2 µM; in experiment [4] it was 23.4 µM; in experiment [6] it was 24 µM; in experiment [7], 23 µM. For the same compound, the TGI was determined as 25 µM in experiment [8]; 19.5 µM in [9]; 22.6 µM in [10]; 35.1 µM in experiment [11]; 22.8 µM in experiment [12]; 29.2 µM in experiment [13]. Further, the results for the concentration for total growth inhibition (TGI) in experiment [14] and in experiment [15] were 20.3 µM and 28.7 µM, respectively.

As for `O=c1[nH]c(=O)n(C/C=C/CO)nc1Br`, the TGI in experiment [1], in experiment [2], in [3], in experiment [4], in [5] and in experiment [6] was more than 100 µM in each case. In addition, the total growth inhibition concentration (TGI) in experiment [7], in experiment [8], in [9], in experiment [10], in experiment [11] and in experiment [12] was more than 100 µM each time. Besides, the TGI in experiment [13], in [14] and in experiment [15] was more than 100 µM in each case.

`Cc1nc2ccccc2c(=O)n1NC(=O)c1ccccn1`: the TGI in [16], in [1], in experiment [2], in experiment [3], in experiment [4] and in experiment [7] was more than 100 µM in each case. The total growth inhibition concentration (TGI) in experiment [8], in [9], in experiment [10], in [12], in [13] and in experiment [14] was more than 100 µM throughout. In addition, in experiment [15], the concentration for total growth inhibition (TGI) was more than 100 µM.

For the compound `OCC1OC(NC(=S)NCCC(F)(F)C(F)(F)C(F)(F)C(F)(F)C(F)(F)C(F)(F)F)C(O)C(O)C1O` (configuration not stated), the TGI in experiment [16], in [1], in experiment [2], in experiment [3], in [4] and in experiment [5] was more than 100 µM in each case. For the same compound, the TGI in experiment [6], in experiment [7], in [8], in experiment [9], in [10] and in experiment [12] was more than 100 µM each time. Moreover, the total growth inhibition concentration (TGI) in experiment [13] and in experiment [14] was more than 100 µM in each case.

As to `O=C1c2c(Br)sc(Br)c2C(NC(=O)C(F)(F)F)C1O` (configuration not stated), the TGI in experiment [16] amounted to 36.4 µM; in [1], 36 µM; in experiment [2] it was 32.6 µM; in experiment [4], 39.4 µM; in [5] it was 33.6 µM; in [6], 39.6 µM. In addition, the concentration for total growth inhibition (TGI) in experiment [7] amounted to 54.3 µM; in [8], 58.5 µM; in experiment [9] it was 40.4 µM; in experiment [10], 48.2 µM; in experiment [11] it was 79.8 µM; in [12], 35.9 µM. For the same compound, the TGI in experiment [13] was more than 100 µM; in experiment [14], more than 100 µM; in [15], 39.5 µM.

For `COc1ccc(CC2Cc3ccccc3CCN2)cc1OC` (configuration not stated), the TGI in experiment [16], in experiment [2], in experiment [3], in [4], in experiment [5] and in experiment [6] was more than 50 µM each time. Besides, the TGI in [7], in experiment [8], in experiment [9], in [10], in [11] and in experiment [12] was more than 50 µM each time. The concentration for total growth inhibition (TGI) in experiment [14] and in [15] was more than 50 µM each time.

For the compound `CC(=O)Nc1ccc(-c2nc3ccccc3s2)cc1Br`, the total growth inhibition concentration (TGI) was 75 µM in experiment [16]; more than 100 µM in [1]; more than 100 µM in [2]; more than 100 µM in experiment [3]; more than 91.4 µM in experiment [4]; more than 100 µM in experiment [5]. Further, the concentration for total growth inhibition (TGI) was more than 100 µM in experiment [7]; more than 100 µM in experiment [8]; more than 100 µM in experiment [9]; more than 100 µM in [10]; more than 94.7 µM in experiment [11]; more than 100 µM in experiment [12]. Further, the figures for the concentration for total growth inhibition (TGI) in [14] and in experiment [15] were 69.1 µM and more than 97.1 µM, respectively.

For `Cc1c2c(cc3c1C(=O)C(=O)C([C@@H](C)CO)=C3O)C(C)(C)CCC2`, the TGI was more than 100 µM in experiment [16]; 86.9 µM in [1]; more than 100 µM in experiment [3]; more than 100 µM in [4]; more than 100 µM in [5]; more than 100 µM in [6]. Moreover, the TGI in experiment [7] was more than 100 µM; in experiment [8] it was more than 100 µM; in experiment [9], more than 100 µM; in experiment [10], 67.5 µM; in experiment [11], more than 100 µM; in experiment [12], more than 100 µM. For the same compound, the TGI in experiment [13], in [14] and in [15] was more than 100 µM in each case.

Consider `COc1cc(C2C3=C(COC3=O)OC(C)(C)Oc3cc4c(cc32)OCO4)cc(OC)c1O` (configuration not stated), for which the total growth inhibition concentration (TGI) was more than 100 µM in experiment [16]; 19.4 µM in experiment [1]; 7.88 µM in [2]; more than 100 µM in experiment [3]; more than 100 µM in [4]; more than 100 µM in experiment [5]. Also, the TGI was more than 100 µM in experiment [6]; 0.645 µM in experiment [7]; more than 76.8 µM in experiment [8]; 0.423 µM in experiment [9]; more than 100 µM in experiment [10]; more than 94.5 µM in experiment [12]. For the same compound, the TGI in experiment [13], in experiment [14] and in experiment [15] was more than 100 µM in each case.

With `CC(=O)C(C(=O)c1ccc(C)cc1)[C@@H]1OC(C)(C)O[C@@H]1[C@H]1COC(C)(C)O1` (some centres not stated), the concentration for total growth inhibition (TGI) was more than 100 µM in experiment [16]; 29.2 µM in experiment [1]; more than 53.4 µM in [2]; 12.5 µM in experiment [3]; 29.8 µM in experiment [4]; 37 µM in experiment [5]. Moreover, the TGI was more than 100 µM in experiment [6]; more than 59.8 µM in experiment [7]; more than 91.6 µM in experiment [8]; 54.3 µM in experiment [9]; 35.8 µM in [10]; more than 100 µM in [12]. In addition, the total growth inhibition concentration (TGI) in experiment [13] was more than 100 µM; in experiment [14], more than 59.8 µM; in [15], more than 100 µM.

Consider `CCCCCCCCCCCCCCCCP(=O)(O)OCC(N)C(=O)O` (configuration not stated), for which the concentration for total growth inhibition (TGI) in [16] was more than 100 µM; in experiment [1], more than 100 µM; in experiment [2], more than 100 µM; in [3], 62.7 µM; in experiment [4] it was more than 100 µM; in experiment [5], more than 100 µM. For the same compound, the TGI in [6] was 65.1 µM; in experiment [7], more than 100 µM; in experiment [8] it was more than 100 µM; in experiment [9] it was more than 100 µM; in experiment [10], more than 100 µM; in experiment [11], more than 100 µM. Moreover, the concentration for total growth inhibition (TGI) in [12] was 48.2 µM; in [14] it was more than 100 µM; in experiment [15], more than 100 µM.

As for `O=C1CC(Br)c2c(Br)sc(Br)c21` (configuration not stated), the TGI in experiment [16] was determined as 55.9 µM; in experiment [1] it was 35.4 µM; in experiment [3] it was 28 µM; in experiment [4], 45.7 µM; in experiment [5], 34.6 µM; in experiment [6], 31.9 µM. For the same compound, the total growth inhibition concentration (TGI) in experiment [7] was 39.1 µM; in experiment [8] it was more than 100 µM; in experiment [9], 28.8 µM; in experiment [10], 29.2 µM; in experiment [11], 54.6 µM; in experiment [12] it was 31.5 µM. Moreover, the values for the TGI in experiment [13], in [14] and in experiment [15] were 32.4 µM, more than 100 µM and 39 µM, respectively.

For orientation: TGI means the concentration at which net growth stops.

(Values after PubChem BioAssay (NCI).)
